The record followed here is article PMC6637425 (ChemMedChem, 2019).

The target in one assay is BACE1 enzyme (Homo sapiens, UniProt P56817). Briefly: BACE1 enzyme inhibition, Ki from kinetic data under tight-binding conditions. The conditions noted are these: for selectivity for BACE1 against BACE2: ratio of Ki values. Format: biochemical.
The target of a further assay is T1, BACE2 enzyme (Homo sapiens, UniProt Q9Y5Z0).
T1 sequence (Q9Y5Z0 63-518): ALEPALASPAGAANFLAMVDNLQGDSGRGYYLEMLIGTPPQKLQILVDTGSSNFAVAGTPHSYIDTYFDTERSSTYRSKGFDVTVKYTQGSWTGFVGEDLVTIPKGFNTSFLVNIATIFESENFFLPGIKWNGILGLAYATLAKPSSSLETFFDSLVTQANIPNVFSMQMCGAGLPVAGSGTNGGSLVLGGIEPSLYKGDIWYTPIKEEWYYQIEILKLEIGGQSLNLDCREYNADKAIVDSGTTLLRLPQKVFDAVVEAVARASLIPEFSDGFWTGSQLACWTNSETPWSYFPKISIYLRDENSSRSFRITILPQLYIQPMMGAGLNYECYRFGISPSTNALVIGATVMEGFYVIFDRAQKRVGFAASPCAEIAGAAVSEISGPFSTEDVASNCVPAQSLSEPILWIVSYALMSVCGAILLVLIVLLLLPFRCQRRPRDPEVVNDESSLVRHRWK
Briefly: BACE2 enzyme inhibition, Ki from kinetic data under tight-binding conditions. Format: biochemical. The conditions noted are these: for selectivity for BACE2 over BACE1: ratio of Ki values.

The mark [1] stands for this setting: read-out: Ki (nM) BACE1, Table 2.
Setting [2] is: read-out: Ki (nM) BACE2, Table 2.
[3] abbreviates: Ki (nM) BACE1, Table 1, new inhibitors 2f-j.
Setting [4] is: Ki (nM) BACE2, Table 1, new inhibitors 2f-j.
Where [5] appears, read: read-out: Ki (nM) BACE1, Table 3.
Where [6] appears, read: read-out: Ki (nM) BACE2, Table 3.

Where two headings read alike, the source gives them in different places. Some results are limits rather than exact numbers.

Sequence of BACE1 enzyme (P56817 46-501): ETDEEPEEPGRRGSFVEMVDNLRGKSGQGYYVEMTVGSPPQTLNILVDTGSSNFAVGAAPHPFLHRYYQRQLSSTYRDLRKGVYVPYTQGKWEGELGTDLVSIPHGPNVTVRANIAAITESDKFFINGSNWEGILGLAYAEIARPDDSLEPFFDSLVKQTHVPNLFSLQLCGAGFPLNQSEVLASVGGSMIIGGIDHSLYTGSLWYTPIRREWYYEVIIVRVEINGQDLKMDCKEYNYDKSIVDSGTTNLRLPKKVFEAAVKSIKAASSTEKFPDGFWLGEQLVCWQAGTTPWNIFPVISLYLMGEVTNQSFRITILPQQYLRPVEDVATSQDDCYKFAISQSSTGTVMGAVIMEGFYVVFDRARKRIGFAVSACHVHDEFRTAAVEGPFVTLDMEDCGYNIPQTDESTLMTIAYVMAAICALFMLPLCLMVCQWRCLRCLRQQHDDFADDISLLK

Regarding `COc1cccc([C@@H](NC[C@@H](O)[C@H](Cc2ccccc2)NC(=O)c2cc(C)cc(C(=O)N(C)[C@H](C)c3ccccc3)c2)[C@H](C)O)c1` [inhibitor 3d, N^1-((2S,3R)-3-Hydroxy-4-(((1R,2S)-2-hydroxy-1-(3-methoxyphenyl)propyl)amino)-1-phenylbutan-2-yl)-N^3,5-dimethyl-N^3-((R)-1-phenylethyl)isophthalamide], the Ki on BACE1 enzyme (Ki (nM) BACE1, Table 2) came to 16200 nM; on BACE2 enzyme (Ki (nM) BACE2, Table 2), 480 nM. At BACE2 enzyme, the “selectivity for BACE2 over BACE1” value was 34 fold.
Regarding `C[C@H](c1ccccc1)N(C)C(=O)c1cccc(C(=O)N[C@@H](Cc2ccccc2)[C@H](O)CNCc2cccc(C(F)(F)F)c2)c1` [inhibitor 3k, N^1-((2S,3R)-3-Hydroxy-1-phenyl-4-((3-(trifluoromethyl)benzyl)amino)butan-2-yl)-N^3-methyl-N^3-((R)-1-phenylethyl)isophthalamide], the Ki at BACE1 enzyme (Ki (nM) BACE1, Table 3) amounted to 1350 nM; at BACE2 enzyme (BACE2 Ki) it was 35.7 nM; at BACE2 enzyme (Ki (nM) BACE2, Table 3), 35.7 nM. The “selectivity for BACE2 over BACE1” value at BACE2 enzyme worked out at 37 fold.
With `COc1cccc([C@@H](NC[C@@H](O)[C@H](Cc2ccccc2)NC(=O)c2cc(C(=O)N[C@H](C)c3ccccc3)cc(N(C)S(C)(=O)=O)c2)[C@H](C)O)c1` [inhibitor 3a, N^1-((2S,3R)-3-Hydroxy-4-(((1R,2S)-2-hydroxy-1-(3-methoxyphenyl)propyl)ammo)-1-phenylbutan-2-yl)-5-(N-methylmethylsulfonamido)-N^3-((R)-1-phenylethyl)isophthalamide], the Ki on BACE1 enzyme (read-out: BACE1 Ki) was found to be 205 nM; on BACE1 enzyme (setting [1]) it was 205 nM; on BACE2 enzyme (read-out: BACE2 Ki) it was 731 nM; at BACE2 enzyme (setting [2]), 731 nM.
With `CCC[C@H](O)[C@H](NC[C@@H](O)[C@H](Cc1ccccc1)NC(=O)c1cccc(C(=O)N(C)[C@H](C)c2ccccc2)c1)c1cccc(OC)c1` [inhibitor 3e, N^1-((2S,3R)-3-Hydroxy-4-(((1R,2S)-2-hydroxy-1-(3-methoxyphenyl)pentyl)amino)-1-phenylbutan-2-yl)-N^3-methyl-N^3-((R)-1-phenylethyl)isophthalamide], the Ki was found to be 38600 nM on BACE1 enzyme (Ki (nM) BACE1, Table 2) and 243 nM at BACE2 enzyme (Ki (nM) BACE2, Table 2). Moreover, the “selectivity for BACE2 over BACE1” value at BACE2 enzyme was determined as 159 fold.
For `COc1cccc([C@@H](NC[C@@H](O)[C@H](Cc2ccccc2)NC(=O)c2cc(C(=O)N(C)[C@H](C)c3ccccc3)cc(N(C)S(C)(=O)=O)c2)[C@H](C)O)c1` [inhibitor 3b, N^1-((2S,3R)-3-Hydroxy-4-(((1R,2S)-2-hydroxy-1-(3-methoxyphenyl)propyl)ammo)-1-phenylbutan-2-yl)-N^3-methyl-5-(N-methylmethylsulfonamido)-N^3-((R)-1-phenylethyl)isophthalamide], the inhibition constant Ki was determined as 4850 nM on BACE1 enzyme (setting [1]) and 479 nM on BACE2 enzyme (setting [2]).
In the case of `COC[C@H]1CCCN1C(=O)c1cccc(C(=O)N[C@@H](Cc2ccccc2)[C@H](O)CN[C@H](C(=O)NCC(C)C)[C@H](C)O)c1` [inhibitor 2f, N-((2S,3R)-3-Hydroxy-4-(((2S,3S)-3-hydroxy-1-(isobutylamino)-1-oxobutan-2-yl)amino)-1-phenylbutan-2-yl)-3-((R)-2-(methoxymethyl)pyrrolidine-1-carbonyl)benzamide], the figures for the inhibition constant Ki at BACE1 enzyme (setting [3]) and on BACE2 enzyme (setting [4]) were 3020 nM and 1370 nM, respectively.
Regarding `CCC[C@H](O)[C@H](NC[C@@H](O)[C@H](Cc1ccccc1)NC(=O)c1cccc(C(=O)N(C)[C@H](C)c2ccccc2)c1)c1ccccc1` [inhibitor 3g, N^1-((2S,3R)-3-Hydroxy-4-(((1R,2S)-2-hydroxy-1-phenylpentyl)ammo)-1-phenylbutan-2-yl)-N^3-methyl-N^3-((R)-1-phenylethyl)isophthalamide], the Ki at BACE1 enzyme (setting [1]) is 42500 nM; on BACE2 enzyme (setting [2]) it was 2550 nM.
With `CCC[C@H](O)[C@H](NC[C@@H](O)[C@H](Cc1ccccc1)NC(=O)c1cc(C)cc(C(=O)N(C)[C@H](C)c2ccccc2)c1)c1ccccc1` [inhibitor 3h, N^1-((2S,3R)-3-Hydroxy-4-(((1R,2S)-2-hydroxy-1-phenylpentyl)amino)-1-phenylbutan-2-yl)-N3,5-dimethyl-N^3-((R)-1-phenylethyl)isophthalamide], the Ki on BACE1 enzyme (Ki (nM) BACE1, Table 2) amounted to 18100 nM; at BACE2 enzyme (Ki (nM) BACE2, Table 2), 905 nM.
In the case of `COc1cccc(CNC[C@@H](O)[C@H](Cc2ccccc2)NC(=O)c2cccc(C(=O)N(C)Cc3nc(C)co3)c2)c1` [inhibitor 3m, N^1-((2S,3R)-3-Hydroxy-4-((3-methoxybenzyl)amino)-1-phenylbutan-2-yl)-N^3-methyl-N^3-((4-methyloxazol-2-yl)methyl)isophthalamide], the Ki on BACE1 enzyme (Ki (nM) BACE1, Table 3) worked out at 68.8 nM; at BACE2 enzyme (Ki (nM) BACE2, Table 3), 7330 nM. Also, the “selectivity for BACE1 against BACE2” value on BACE1 enzyme was “over 100 fold”.
In the case of `COc1cccc(CNC[C@@H](O)[C@H](Cc2ccccc2)NC(=O)c2cc(C)cc(C(=O)N(C)[C@H](C)c3ccccc3)c2)c1` [inhibitor 3j, N^1-((2S,3R)-3-Hydroxy-4-((3-methoxybenzyl)ammo)-1-phenylbutan-2-yl)-N3,5-dimethyl-N^3-((R)-1-phenylethyl)isophthalamide], the values for the inhibition constant (Ki) at BACE1 enzyme (setting [5]) and at BACE2 enzyme (setting [6]) were 837 nM and 14 nM, respectively. For the same molecule, the “selectivity for BACE2 over BACE1” value at BACE2 enzyme is on record as about 60 fold.
Turning to `CCC[C@H](O)[C@H](NC[C@@H](O)[C@H](Cc1ccccc1)NC(=O)c1cc(C)cc(C(=O)N(C)[C@H](C)c2ccccc2)c1)c1cccc(OC)c1` [inhibitor 3f, N^1-((2S,3R)-3-Hydroxy-4-(((1R,2S)-2-hydroxy-1-(3-methoxyphenyl)pentyl)ammo)-1-phenylbutan-2-yl)-N^3,5-dimethyl-N^3-((R)-1-phenylethyl)isophthalamide], the values for the inhibition constant Ki on BACE1 enzyme (setting [1]) and on BACE2 enzyme (setting [2]) were 8800 nM and 141 nM, respectively. In addition, the “selectivity for BACE2 over BACE1” value at BACE2 enzyme is 62 fold.
As to `Cc1cc(C(=O)N[C@@H](Cc2ccccc2)[C@H](O)CN[C@H](C(=O)NCC(C)C)[C@H](C)O)cc(C(=O)N(C)Cc2nc(C)cs2)c1` [inhibitor 2h, N^1-((2S,3R)-3-Hydroxy-4-(((2S,3S)-3-hydroxy-1-(isobutylamino)-1-oxobutan-2-yl)amino)-1-phenylbutan-2-yl)-N^3,5-dimethyl-N^3-((4-methylthiazol-2-yl)methyl)isophthalamide], the Ki at BACE1 enzyme (setting [3]) is 176 nM; at BACE2 enzyme (setting [4]) it was 96.9 nM. Besides, the “selectivity for BACE2 over BACE1” value on BACE2 enzyme was 2 fold.
Take `CCC[C@H](O)[C@H](NC[C@@H](O)[C@H](Cc1ccccc1)NC(=O)c1cc(C)cc(C(=O)N2CCC[C@@H]2COC)c1)C(=O)NCC(C)C` [inhibitor 2g, N-((2S,3R)-3-Hydroxy-4-(((2S,3S)-3-hydroxy-1-(isobutylamino)-1-oxohexan-2-yl)amino)-1-phenylbutan-2-yl)-3-((R)-2-(methoxymethyl)pyrrolidine-1-carbonyl)-5-methylbenzamide]: the Ki amounted to 6.6 nM on BACE1 enzyme (setting [3]) and 27.9 nM on BACE2 enzyme (setting [4]).
Turning to `COc1cccc(CNC[C@@H](O)[C@H](Cc2ccccc2)NC(=O)c2cc(C)cc(C(=O)N(C)C(C)c3nc(C)co3)c2)c1` (mixture of isomers) [inhibitor 3o, N^1-((2S,3R)-3-Hydroxy-4-((3-methoxybenzyl)ammo)-1-phenylbutan-2-yl)-N^3,5-dimethyl-N^3-(1-(4-methyloxazol-2-yl)ethyl)isophthalamide], the Ki at BACE1 enzyme (setting [5]) worked out at 767 nM; at BACE2 enzyme (setting [6]), 801 nM. Also, the “selectivity for BACE2 over BACE1” value at BACE2 enzyme was “no appreciable selectivity”.
With `Cc1cc(C(=O)N[C@@H](Cc2ccccc2)[C@H](O)CNCc2cccc(C(F)(F)F)c2)cc(C(=O)N(C)[C@H](C)c2ccccc2)c1` [inhibitor 3l, N^1-((2S,3R)-3-Hydroxy-1-phenyl-4-((3-(trifluoromethyl)benzyl)ammo)butan-2-yl)-N^3,5-dimethyl-N^3-((R)-1-phenylethyl)isophthalamide], the Ki amounted to 815 nM on BACE1 enzyme (setting [5]) and 1.6 nM at BACE2 enzyme (setting [6]). In addition, the “selectivity for BACE2 over BACE1” value at BACE2 enzyme is recorded as “over 500 fold”.
Consider `COc1cccc(CNC[C@@H](O)[C@H](Cc2ccccc2)NC(=O)c2cc(C)cc(C(=O)N(C)Cc3nc(C)co3)c2)c1` [inhibitor 3n, N^1-((2S,3R)-3-Hydroxy-4-((3-methoxybenzyl)amino)-1-phenylbutan-2-yl)-N^3,5-dimethyl-N^3-((4-methyloxazol-2-yl)methyl)isophthalamide], for which the inhibitory constant (Ki) on BACE1 enzyme (Ki (nM) BACE1, Table 3) stood at 25.4 nM; on BACE2 enzyme (Ki (nM) BACE2, Table 3), 1920 nM. The “selectivity for BACE1 against BACE2” value at BACE1 enzyme is on record as over 75 fold.
With `COc1cccc([C@@H](NC[C@@H](O)[C@H](Cc2ccccc2)NC(=O)c2cccc(C(=O)N(C)[C@H](C)c3ccccc3)c2)[C@H](C)O)c1` [inhibitor 3c, N^1-((2S,3R)-3-Hydroxy-4-(((1R,2S)-2-hydroxy-1-(3-methoxyphenyl)propyl)ammo)-1-phenylbutan-2-yl)-N^3-methyl-N^3-((R)-1-phenylethyl)isophthalamide], the inhibition constant (Ki) was determined as 51300 nM on BACE1 enzyme (setting [1]) and 950 nM at BACE2 enzyme (setting [2]). Also, the “selectivity for BACE2 over BACE1” value on BACE2 enzyme is 54 fold.
In the case of `COc1cccc(CNC[C@@H](O)[C@H](Cc2ccccc2)NC(=O)c2cccc(C(=O)N(C)[C@H](C)c3ccccc3)c2)c1` [inhibitor 3i, N^1-((2S,3R)-3-Hydroxy-4-((3-methoxybenzyl)ammo)-1-phenylbutan-2-yl)-N^3-methyl-N^3-((R)-1-phenylethyl)isophthalamide], the values for the Ki at BACE1 enzyme (setting [5]), on BACE2 enzyme (read-out: BACE2 Ki) and on BACE2 enzyme (setting [6]) were 2080 nM, 39.4 nM and 39.5 nM, respectively.

The term Ki denotes a measure of affinity in units of concentration, obtained from inhibition or displacement.
